# Assay results from publication PMC6480966, “Synthesis, In Silico, and In Vitro Evaluation of Anti-Leishmanial Activity of Oxadiazoles and Indolizine Containing Compounds Flagged against Anti-Targets” (Molecules, 2019).
# Read-outs that look alike come from different tables or passages of the source.
# What was measured:
# [1] = Cytotoxicity test on macrophages (resazurin); format: cell-based; settings: mouse, RAW 264.7 macrophages, 48 h incubation
# Method: (§1) RAW 264.7 macrophages were grown with 5% CO2 in DMEM complete medium containing Dulbecco’s Modified Eagle’s Medium (DMEM) with 100 U/mL penicillin-streptomycin, and 10% HIFBS at 37 °C.
# (§2) RAW 264.7 macrophages were used for cytotoxicity testing. Cells were plated in 96-well microplates at a density of 2 × 10^4 cells per well. Twenty-four hours of incubation with 5% CO2 at 37 °C followed, and then the medium was removed and to each well, 100 μL of DMEM complete medium containing two-fold serial dilutions of the compounds were added. This was followed by 48 h of incubation with 5% CO2 at 37 °C, after which 10 μL of resazurin (450 μM) was added to each well, and further incubated with 5% CO2, in the dark for 4 h at 37 °C. Cell viability was then monitored as above. Compound cytotoxicity was expressed as CC50 (Cytotoxic Concentration 50%: concentration inhibiting the macrophages growth by 50%).
# [2] = test system: Leishmania donovani LV9 intramacrophage amastigotes; assay: In vitro anti-leishmanial testing on intramacrophage amastigotes (RAW 264.7, Sybr Green I); format: cell-based; settings: for SI = CC50/IC50 Intramacro. Amas.: CC50 RAW 264.7 / IC50 intramacrophage amastigotes; for IC50: Leishmania donovani, RAW264.7, RAW 264.7 macrophages, 48 h treatment
# Method: (§3) Leishmania donovani promastigotes (MHOM/ET/67/HU3/LV9) were cultured with 5% CO2 in M199 complete medium containing M199 medium supplemented with 100 μM adenosine, 0.5 mg/L hemin, 40 mM Hepes pH 7.4 and 10% heat inactivated fetal bovine serum (HIFBS) in the dark at 26 °C. Late log promastigotes diluted at 1 × 10^6/mL in M199 complete medium acidified at pH 5.5 and cultured at 37 °C with 5% CO2 provided the cultures of axenic amastigotes of L. donovani.
# as §1
# For intramacrophage amastigote testing, RAW 264.7 macrophages were incubated with 5% CO2 at 37 °C for 24 h after being plated in 96-well microplates at a density of 2 × 10^4 cells per well. Axenic amastigotes were differentiated as described above, centrifuged at 2000 g for 10 min, re-suspended in DMEM complete medium, and added to each well to reach a 16:1 parasite to macrophage ratio. 24 h of infection with 5% CO2 at 37 °C proceeded, and extracellular parasites were removed. This was followed by addition to each well of DMEM complete medium (100 μL) containing two-fold serial dilutions of the compounds from a maximal concentration of 100 μM. The medium was removed following treatment of 48 h and replaced by Direct PCR Lysis Reagent (100 μL; Euromedex) before 3 freeze-thaw cycles at room temperature, addition of 50 μg/mL proteinase K, and a final incubation at 55 °C overnight to allow cell lysis. 10 μL of each cell extract was then added to 40 μL of Direct PCR Lysis reagent containing Sybr Green I (0.05%; Invitrogen). Mastercycler® realplex (Eppendorf) was used to monitor DNA fluorescence. Compound activity was expressed as IC50 (µM). The drug used for reference was Amphotericin B (AmB).
# [3] = test system: Leishmania donovani LV9 axenic amastigotes; assay: In vitro anti-leishmanial testing on axenic amastigotes (resazurin); format: cell-based; settings: then resazurin 24 h
# Method: as §3
# Previously described protocols were adapted for evaluation of compounds on L. donovani. For axenic amastigotes, two-fold serial dilutions of the compounds were done in 96-well microplates with 100 μL of complete medium (see above). Axenic amastigotes were then added to each well at a density of […] in a 200 μL final volume. After 72 h of incubation with 5% CO2 at 37 °C, 20 μL of resazurin (450 μM) was added to each well and further incubated with 5% CO2 at 37 °C for 24 h in the dark. Resazurin is reduced to resorufin in living cells and can be then monitored by measuring OD570nm (resorufin) and OD600nm (resazurin; Lab systems Multiskan MS). Compound activity was expressed as IC50 (µM). The drug used for reference was Amphotericin B (AmB).
# [4] = test system: Leishmania donovani LV9 axenic amastigotes; assay: In vitro anti-leishmanial testing on axenic amastigotes (resazurin); format: cell-based; settings: against Leishmania axenic amastigotes (as worded)
# RAW 264.7 macrophages = assay: Cytotoxicity test on macrophages (resazurin); format: cell-based; settings: as defined
# Method: as §1, §2
# Leishmania = test system: Leishmania; set-up: method as in PMID 18353643; settings: read-out: IC50 of reference drug miltefosine; cited from earlier work
# [5] = Table 3, read-out: Leishmania donovani LV9 Intramacrophage Amastigotes IC50 ± SD
# [6] = Table 2, read-out: Toxicity on RAW 264.7 Macrophages CC50 ± SD
# [7] = Table 2, read-out: Leishmania donovani Intramacrophage Amastigotes Forms IC50 ± SD
# [8] = Table 2, 72 h incubation, read-out: Leishmania donovani LV9 axenic Amastigotes Forms IC50 ± SD
"IC50 [2, 5]","IC50 ([3]; Table 3, 72 h incubation, read-out: Leishmania donovani LV9 Axenic Amastigotes IC50 ± SD)",melting point,"IC50 [2, 7]","IC50 [3, 8]",Structure (SMILES),"CC50 at 48 h ([1]; Table 3, read-out: Cytotoxicity on RAW 264.7 Macrophages CC50 ± SD)",SI = CC50/IC50 Intramacro. Amas. [2],"CC50 at 48 h [1, 6]",selectivity index (SI) [4],"selectivity index (SI, CC50 for macrophage/IC50 for promastigotes) (RAW 264.7 macrophages)",IC50 (Leishmania)
0.11 ± 0.09 µM,0.2 ± 0.08 µM,–,–,–,"C[C@@H]1[C@H](O)[C@@H](C)/C=C/C=C/C=C/C=C/C=C/C=C/C=C/[C@H](O[C@@H]2O[C@H](C)[C@@H](O)[C@H](N)[C@@H]2O)C[C@@H]2O[C@](O)(C[C@@H](O)C[C@@H](O)[C@H](O)CC[C@@H](O)C[C@@H](O)CC(=O)O[C@H]1C)C[C@H](O)[C@H]2C(=O)O [AmB, Amphotericin B, reference compound]",5.36 ± 0.52 µM,48.7,–,–,–,–
–,–,121 to 124 °C,6.25 ± 1.89 µM,11.9 ± 1.87 µM,"Cc1csc(C=NNC(=O)c2ccco2)n1 [Compound 1, N’-[(4-Methyl-2-thiazolyl)methylene]furan-2-carbohydrazide]",–,2.2,13.9 ± 2.11 µM,–,–,–
< 5 µM,–,–,2.18 ± 0.01 µM,1.09 ± 0.12 µM,"O=C(NN=Cc1ccc(Br)s1)c1cccs1 [Compound 2, N’-[(5-Bromo-2-thiophenyl)methylene]thiophene-2-carbohydrazide]",–,2.2,4.87 ± 0.39 µM,2,≥ 2,–
–,–,201 to 202 °C,> 100 µM,> 100 µM,"O=C(NN=Cc1ccc(Br)s1)c1ccco1 [Compound 3, N’-[(5-Bromo-2-thiophenyl)methylene]furan-2-carbohydrazide]",–,–,> 100 µM,–,–,–
–,–,231 to 234 °C,11.2 ± 0.62 µM,12.5 ± 0.61 µM,"O=C(NN=Cc1nc2ccccc2s1)c1cccs1 [Compound 4, N’-[(2-Benzothiazolyl)methylene]thiophene-2-carbohydrazide]",–,1.4,16.3 ± 1.42 µM,–,–,–
–,–,234 to 237 °C,55.2 ± 4.77 µM,61.5 ± 5.99 µM,"O=C(NN=Cc1nc2ccccc2s1)c1ccncc1 [Compound 5, N’-[(2-Benzothiazolyl)methylene]pyridine-4-carbohydrazide]",–,>1.8,> 100 µM,–,–,–
–,–,182 to 184 °C,47.2 ± 3.12 µM,51.2 ± 4.98 µM,"NC(=NO)c1cccc([N+](=O)[O-])c1 [Compound 7, 3-Nitrobenzamidoxime]",–,>2.1,> 100 µM,–,–,–
–,–,56 to 57 °C,51.3 ± 4.35 µM,59.9 ± 6.45 µM,COCc1nc(-c2ccc3c(c2)OCO3)no1 [Compound 8],–,>1.9,> 100 µM,–,–,–
–,–,234 °C,–,–,"COC(=O)c1c(C(=O)OC)c2ccccn2c1-c1nc2cc([N+](=O)[O-])ccc2[nH]1 [Compound 11, Dimethyl 3-(5-nitro-1H-benzo[d]imidazol-2-yl)indolizine-1,2-dicarboxylate]",–,–,–,–,–,–
–,–,162 °C,> 100 µM,> 100 µM,"COC(=O)c1c(C(=O)OC)c2c3ccccc3ccn2c1-c1nc2cc([N+](=O)[O-])ccc2[nH]1 [Compound 12, Dimethyl 3-(5-nitro-1H-benzo[d]imidazol-2-yl)pyrrolo[2,1-a]isoquinoline-1,2-dicarboxylate]",–,–,> 100 µM,–,–,–
–,–,280 °C,–,–,"COC(=O)c1cc(-c2nc3cc([N+](=O)[O-])ccc3[nH]2)n2ccc3ccccc3c12 [Compound 13, Methyl 3-(5-nitro-1H-benzo[d]imidazol-2-yl)pyrrolo[2,1-a]isoquinoline-1-carboxylate]",–,–,–,–,–,–
–,–,–,–,–,CCCCCCCCCCCCCCCCOP(=O)([O-])OCC[N+](C)(C)C [miltefosine],–,–,–,–,–,0.31 µM
